Results: BigSolDB 2.1

**Q.** For C[C@@H]1CC[C@@]2(OC1)O[C@H]1C[C@H]3[C@@H]4CC=C5C[C@@H](O)CC[C@]5(C)[C@H]4CC[C@]3(C)[C@H]1[C@@H]2C, which solubility (mole fraction) (in ethanol, 289.15 K) is on record?
**A.** 0.00106

**Q.** What about the solubility (mole fraction) (in ethanol, 301.05 K) of the same compound?
**A.** 0.00147

**Q.** What about the solubility (mole fraction) (in ethanol, 305.75 K) of the same compound?
**A.** 0.0017

**Q.** And the solubility (mole fraction) (in ethanol, 312.35 K)?
**A.** 0.00188

**Q.** And the solubility (mole fraction) (in ethanol, 312.65 K)?
**A.** 0.00196

**Q.** What about the solubility (mole fraction) (in ethanol, 316.65 K) of the same compound?
**A.** 0.00227

**Q.** And the solubility (mole fraction) (in ethanol, 320.25 K)?
**A.** 0.00253

**Q.** And the solubility (mole fraction) (in ethanol, 322.35 K)?
**A.** 0.00269

**Q.** And the solubility (mole fraction) (in ethanol, 324.05 K)?
**A.** 0.0029

**Q.** And the solubility (mole fraction) (in ethanol, 325.65 K)?
**A.** 0.00306

**Q.** What about the solubility (mole fraction) (in ethanol, 327.65 K) of the same compound?
**A.** 0.00324

**Q.** And the solubility (mole fraction) (in ethanol, 329.05 K)?
**A.** 0.00338

**Q.** What about the solubility (mole fraction) (in ethanol, 331.25 K) of the same compound?
**A.** 0.00353

**Q.** What about the solubility (mole fraction) (in ethanol, 332.35 K) of the same compound?
**A.** 0.00372

**Q.** And the solubility (mole fraction) (in ethanol, 334.15 K)?
**A.** 0.00388

**Q.** What about the solubility (mole fraction) (in isobutanol, 305.15 K) of the same compound?
**A.** 0.00236

**Q.** And the solubility (mole fraction) (in isobutanol, 306.95 K)?
**A.** 0.00266

**Q.** And the solubility (mole fraction) (in isobutanol, 307.65 K)?
**A.** 0.00296

**Q.** What about the solubility (mole fraction) (in isobutanol, 308.65 K) of the same compound?
**A.** 0.00332

**Q.** And the solubility (mole fraction) (in isobutanol, 310.15 K)?
**A.** 0.00364

**Q.** What about the solubility (mole fraction) (in isobutanol, 311.65 K) of the same compound?
**A.** 0.00416

**Q.** What about the solubility (mole fraction) (in isobutanol, 312.95 K) of the same compound?
**A.** 0.00456

**Q.** What about the solubility (mole fraction) (in isobutanol, 313.85 K) of the same compound?
**A.** 0.00499

**Q.** And the solubility (mole fraction) (in isobutanol, 314.85 K)?
**A.** 0.0054

**Q.** And the solubility (mole fraction) (in isobutanol, 316.15 K)?
**A.** 0.00582

**Q.** What about the solubility (mole fraction) (in isobutanol, 317.65 K) of the same compound?
**A.** 0.00625

**Q.** What about the solubility (mole fraction) (in isobutanol, 319.65 K) of the same compound?
**A.** 0.00672

**Q.** And the solubility (mole fraction) (in isobutanol, 320.65 K)?
**A.** 0.0071

**Q.** And the solubility (mole fraction) (in isobutanol, 322.15 K)?
**A.** 0.00754

**Q.** What about the solubility (mole fraction) (in isobutanol, 323.85 K) of the same compound?
**A.** 0.00797

**Q.** And the solubility (mole fraction) (in isobutanol, 325.15 K)?
**A.** 0.00836

**Q.** What about the solubility (mole fraction) (in isobutanol, 326.95 K) of the same compound?
**A.** 0.00884

**Q.** What about the solubility (mole fraction) (in isobutanol, 328.65 K) of the same compound?
**A.** 0.00931

**Q.** What about the solubility (mole fraction) (in isobutanol, 330.65 K) of the same compound?
**A.** 0.00979

**Q.** And the solubility (mole fraction) (in isooctanol, 296.55 K)?
**A.** 0.0073

**Q.** And the solubility (mole fraction) (in isooctanol, 298.55 K)?
**A.** 0.00809

**Q.** What about the solubility (mole fraction) (in isooctanol, 299.75 K) of the same compound?
**A.** 0.0091

**Q.** And the solubility (mole fraction) (in isooctanol, 303.15 K)?
**A.** 0.00992

**Q.** And the solubility (mole fraction) (in isooctanol, 305.65 K)?
**A.** 0.0106

**Q.** What about the solubility (mole fraction) (in isooctanol, 307.15 K) of the same compound?
**A.** 0.0114

**Q.** What about the solubility (mole fraction) (in isooctanol, 309.25 K) of the same compound?
**A.** 0.012

**Q.** What about the solubility (mole fraction) (in isooctanol, 311.85 K) of the same compound?
**A.** 0.0129

**Q.** And the solubility (mole fraction) (in isooctanol, 314.65 K)?
**A.** 0.0139

**Q.** What about the solubility (mole fraction) (in isooctanol, 315.95 K) of the same compound?
**A.** 0.0146

**Q.** What about the solubility (mole fraction) (in isooctanol, 318.25 K) of the same compound?
**A.** 0.0154

**Q.** And the solubility (mole fraction) (in isooctanol, 321.05 K)?
**A.** 0.0163

**Q.** And the solubility (mole fraction) (in isooctanol, 323.25 K)?
**A.** 0.017

**Q.** And the solubility (mole fraction) (in isooctanol, 324.95 K)?
**A.** 0.0177

**Q.** What about the solubility (mole fraction) (in isooctanol, 326.55 K) of the same compound?
**A.** 0.0185

**Q.** What about the solubility (mole fraction) (in isooctanol, 327.45 K) of the same compound?
**A.** 0.0192

**Q.** And the solubility (mole fraction) (in isooctanol, 329.75 K)?
**A.** 0.0199

**Q.** And the solubility (mole fraction) (in n-butanol, 295.75 K)?
**A.** 0.00469

**Q.** What about the solubility (mole fraction) (in n-butanol, 298.15 K) of the same compound?
**A.** 0.0052

**Q.** What about the solubility (mole fraction) (in n-butanol, 300.15 K) of the same compound?
**A.** 0.00572

**Q.** And the solubility (mole fraction) (in n-butanol, 304.65 K)?
**A.** 0.00624

**Q.** And the solubility (mole fraction) (in n-butanol, 307.65 K)?
**A.** 0.00659

**Q.** What about the solubility (mole fraction) (in n-butanol, 309.65 K) of the same compound?
**A.** 0.00694

**Q.** And the solubility (mole fraction) (in n-butanol, 311.55 K)?
**A.** 0.00731

**Q.** What about the solubility (mole fraction) (in n-butanol, 312.65 K) of the same compound?
**A.** 0.00767

**Q.** And the solubility (mole fraction) (in n-butanol, 314.25 K)?
**A.** 0.00805

**Q.** What about the solubility (mole fraction) (in n-butanol, 315.85 K) of the same compound?
**A.** 0.0084

**Q.** And the solubility (mole fraction) (in n-butanol, 317.35 K)?
**A.** 0.00914

**Q.** What about the solubility (mole fraction) (in n-butanol, 319.15 K) of the same compound?
**A.** 0.00956

**Q.** What about the solubility (mole fraction) (in n-butanol, 320.65 K) of the same compound?
**A.** 0.00996

**Q.** And the solubility (mole fraction) (in n-butanol, 323.45 K)?
**A.** 0.0105

**Q.** What about the solubility (mole fraction) (in n-butanol, 325.45 K) of the same compound?
**A.** 0.011

**Q.** And the solubility (mole fraction) (in n-butanol, 326.45 K)?
**A.** 0.0114

**Q.** And the solubility (mole fraction) (in n-butanol, 328.45 K)?
**A.** 0.012

**Q.** And the solubility (mole fraction) (in n-pentanol, 290.75 K)?
**A.** 0.00406

**Q.** What about the solubility (mole fraction) (in n-pentanol, 292.75 K) of the same compound?
**A.** 0.00455

**Q.** And the solubility (mole fraction) (in n-pentanol, 296.15 K)?
**A.** 0.00507

**Q.** What about the solubility (mole fraction) (in n-pentanol, 299.65 K) of the same compound?
**A.** 0.00566

**Q.** And the solubility (mole fraction) (in n-pentanol, 301.55 K)?
**A.** 0.00615

**Q.** What about the solubility (mole fraction) (in n-pentanol, 304.15 K) of the same compound?
**A.** 0.00663

**Q.** What about the solubility (mole fraction) (in n-pentanol, 307.65 K) of the same compound?
**A.** 0.00722

**Q.** What about the solubility (mole fraction) (in n-pentanol, 309.85 K) of the same compound?
**A.** 0.00775

**Q.** And the solubility (mole fraction) (in n-pentanol, 312.45 K)?
**A.** 0.00838

**Q.** And the solubility (mole fraction) (in n-pentanol, 314.45 K)?
**A.** 0.00888

**Q.** And the solubility (mole fraction) (in n-pentanol, 316.75 K)?
**A.** 0.00933

**Q.** What about the solubility (mole fraction) (in n-pentanol, 317.35 K) of the same compound?
**A.** 0.00978

**Q.** And the solubility (mole fraction) (in n-pentanol, 318.75 K)?
**A.** 0.0105

**Q.** What about the solubility (mole fraction) (in n-pentanol, 320.65 K) of the same compound?
**A.** 0.0111

**Q.** And the solubility (mole fraction) (in n-pentanol, 322.65 K)?
**A.** 0.0116

**Q.** And the solubility (mole fraction) (in n-pentanol, 324.15 K)?
**A.** 0.0123

**Q.** And the solubility (mole fraction) (in n-pentanol, 325.75 K)?
**A.** 0.0128

**Q.** And the solubility (mole fraction) (in n-pentanol, 327.15 K)?
**A.** 0.0134

**Q.** What about the solubility (mole fraction) (in n-pentanol, 329.15 K) of the same compound?
**A.** 0.0139

**Q.** What about the solubility (mole fraction) (in n-propanol, 290.15 K) of the same compound?
**A.** 0.00163

**Q.** What about the solubility (mole fraction) (in n-propanol, 292.95 K) of the same compound?
**A.** 0.00205

**Q.** And the solubility (mole fraction) (in n-propanol, 295.55 K)?
**A.** 0.00243

**Q.** What about the solubility (mole fraction) (in n-propanol, 301.75 K) of the same compound?
**A.** 0.00278

**Q.** What about the solubility (mole fraction) (in n-propanol, 305.25 K) of the same compound?
**A.** 0.00307

**Q.** And the solubility (mole fraction) (in n-propanol, 307.95 K)?
**A.** 0.0034

**Q.** And the solubility (mole fraction) (in n-propanol, 310.95 K)?
**A.** 0.0039

**Q.** And the solubility (mole fraction) (in n-propanol, 314.75 K)?
**A.** 0.00424

**Q.** And the solubility (mole fraction) (in n-propanol, 318.15 K)?
**A.** 0.00473

**Q.** And the solubility (mole fraction) (in n-propanol, 320.05 K)?
**A.** 0.00506

**Q.** What about the solubility (mole fraction) (in n-propanol, 322.75 K) of the same compound?
**A.** 0.00542

**Q.** What about the solubility (mole fraction) (in n-propanol, 326.35 K) of the same compound?
**A.** 0.0059

**Q.** What about the solubility (mole fraction) (in n-propanol, 327.85 K) of the same compound?
**A.** 0.00622

**Q.** What about the solubility (mole fraction) (in n-propanol, 329.25 K) of the same compound?
**A.** 0.00663

**Q.** What about the solubility (mole fraction) (in n-propanol, 330.65 K) of the same compound?
**A.** 0.00696

**Q.** What about the solubility (mole fraction) (in n-propanol, 332.65 K) of the same compound?
**A.** 0.0073

**Q.** And the solubility (mole fraction) (in tert-butanol, 302.15 K)?
**A.** 0.000811

**Q.** And the solubility (mole fraction) (in tert-butanol, 304.65 K)?
**A.** 0.00108

**Q.** What about the solubility (mole fraction) (in tert-butanol, 306.65 K) of the same compound?
**A.** 0.00134

**Q.** What about the solubility (mole fraction) (in tert-butanol, 308.15 K) of the same compound?
**A.** 0.00151

**Q.** And the solubility (mole fraction) (in tert-butanol, 310.65 K)?
**A.** 0.00175

**Q.** And the solubility (mole fraction) (in tert-butanol, 312.15 K)?
**A.** 0.00198

**Q.** And the solubility (mole fraction) (in tert-butanol, 313.65 K)?
**A.** 0.00223

**Q.** And the solubility (mole fraction) (in tert-butanol, 314.15 K)?
**A.** 0.00244

**Q.** And the solubility (mole fraction) (in tert-butanol, 315.95 K)?
**A.** 0.00274

**Q.** And the solubility (mole fraction) (in tert-butanol, 317.75 K)?
**A.** 0.00307

**Q.** And the solubility (mole fraction) (in tert-butanol, 321.15 K)?
**A.** 0.00343

**Q.** And the solubility (mole fraction) (in tert-butanol, 323.15 K)?
**A.** 0.00368

**Q.** What about the solubility (mole fraction) (in tert-butanol, 325.15 K) of the same compound?
**A.** 0.00392

**Q.** And the solubility (mole fraction) (in tert-butanol, 326.65 K)?
**A.** 0.00427

**Q.** What about the solubility (mole fraction) (in tert-butanol, 328.65 K) of the same compound?
**A.** 0.00467

**Q.** And the solubility (mole fraction) (in tert-butanol, 330.75 K)?
**A.** 0.00497

**Q.** What about the solubility (mole fraction) (in tert-butanol, 332.45 K) of the same compound?
**A.** 0.00529
